What was measured:
Type in all cases: cell-based
human islets [1] = test: Human islet perifusion, insulin secretion with Ex9 or hGIP(3-30) (Extended Data Fig. 2); set-up: key to iAUC: insulin iAUC, ng/ml × (1/200 µl/ml) × (1/75 islets), baseline = first point; settings: insulin secretion; for Mean (One way ANOVA): iAUC, Control = 1, mean of n = 3; for iAUC: TZP + PBS or labelled antagonist
Procedure: (§1) Human islets were obtained from both the Alberta Diabetes Institute and the Integrated Islet Distribution Program. All islets were obtained from consenting donors. Details for the general perifusion protocol have been previously described[21] and are similar to the mouse perifusion protocol. […] Each set of human islets consisted of n = 3 for each condition. These were averaged to generate a single data point (Fig. 2c). Insulin values were measured with a Lumit insulin immunoassay (Promega) using an EnVision plate reader (PerkinElmer). For the glucagon secretion experiments (Fig. 3), the average glucagon values were calculated during control (minutes 35–45) and stimulated (minutes 55–65) conditions. All peptides were used at 30 nM concentrations based on previous work[16]. Amino acids were used at concentrations of 3 mM based on previous work[11]. Glucagon was measured with a Lumit Glucagon Immunoassay Kit (cat. no. CS3037A02; Promega) using an EnVision plate reader (PerkinElmer). Somatostatin was measured with an ELISA assay (cat. no. FEK-060-14; Phoenix Pharmaceuticals). All data are expressed as the measured concentration relative to both flow rate and islet number (insulin, ng ml^–1 × (1/200 µl ml^–1) × (1/75 islets); glucagon, pM × (1/200 µl ml^–1) × (1/75 islets); somatostatin, pg ml^–1 × (1/200 µl ml^–1) × (1/75 islets))[49]. Human pancreatic islets and pancreas tissue were isolated from deceased donors under ethical approval from the Human Research Ethics Board of the University of Alberta (Pro00013094, Pro00001754) and obtained from the NIDDK-funded Integrated Islet Distribution Program (IIDP) (RRID: SCR _014387). All donors’ families gave informed consent for the use of pancreatic tissue in research and were not financially compensated.
The integrated area under the curve (iAUC) was calculated for both glucose and tirzepatide stimulated insulin secretion using the value of the first time point as the baseline. All values are mean + /- SEM, n = 3/group. A one-way ANOVA with Tukey’s posthoc test was used. Source data

mouse islets [2] = test: Mouse islet perifusion, control and Gipr beta-cell knockout islets ± Ex9 (Fig. 1a), insulin secretion; settings: Ex9 1 μM
Procedure: (§2) In brief, islets were individually picked to ensure consistency across chambers with respect to both number and size. […] Insulin values were measured with a Lumit insulin immunoassay (Promega) using an EnVision plate reader (PerkinElmer).

mouse islets [3] = test: Mouse islet perifusion with incretin receptor antagonists (Fig. 1b), insulin secretion; settings: antagonists 1 μM, tirzepatide 0–100 nM
Procedure: as §2

human islets [4] = test: Human islet perifusion, insulin secretion (Fig. 2); settings: human islets stimulated with TZP; for TZP insulin secretion iAUC, Percent Control: % of Average Control (PBS); for TZP insulin secretion iAUC: PBS or antagonist(s) as labelled
Procedure: as §1

## exendin(9-39) [Ex9]
Human islets [1]; donor R464, R464 (3-30) TZP
  Mean (One way ANOVA): 1.267
Human islets [1]; donor S5423, SAMN5423 (3-30) TZP
  Mean (One way ANOVA): 1.135
Human islets [1]; donor R464, replicate 1
  iAUC: 1.277
Human islets [1]; donor R464, replicate 2
  iAUC: 1.0253
Human islets [1]; donor R464, replicate 3
  iAUC: 1.497
Human islets [1]; donor S5423, replicate 1
  iAUC: 1.294
Human islets [1]; donor S5423, replicate 2
  iAUC: 1.08
Human islets [1]; donor S5423, replicate 3
  iAUC: 1.031
Mouse islets [2]
  Effect on tirzepatide-stimulated insulin secretion: completely blocked insulin secretion in response to tirzepatide
Mouse islets [3]
  Effect on tirzepatide-stimulated insulin secretion: prevented insulin secretion in response to tirzepatide
Human islets [4]; donor R434, replicate 1
  TZP insulin secretion iAUC, Percent Control: 81.0 %Control
  TZP insulin secretion iAUC: 149.1
Human islets [4]; donor R434, replicate 2
  TZP insulin secretion iAUC, Percent Control: 70.5 %Control
  TZP insulin secretion iAUC: 129.7
Human islets [4]; donor R434, replicate 3
  TZP insulin secretion iAUC, Percent Control: 110.7 %Control
  TZP insulin secretion iAUC: 203.7
Human islets [4]; donor R443, replicate 1
  TZP insulin secretion iAUC, Percent Control: 152.6 %Control
  TZP insulin secretion iAUC: 9.764
Human islets [4]; donor R443, replicate 2
  TZP insulin secretion iAUC, Percent Control: 43.9 %Control
  TZP insulin secretion iAUC: 2.809
Human islets [4]; donor R443, replicate 3
  TZP insulin secretion iAUC, Percent Control: 123.9 %Control
  TZP insulin secretion iAUC: 7.929
Human islets [4]; donor R444, replicate 1
  TZP insulin secretion iAUC, Percent Control: 49.3 %Control
  TZP insulin secretion iAUC: 12.31
Human islets [4]; donor R444, replicate 2
  TZP insulin secretion iAUC, Percent Control: 46.5 %Control
  TZP insulin secretion iAUC: 11.61
Human islets [4]; donor R444, replicate 3
  TZP insulin secretion iAUC, Percent Control: 59.5 %Control
  TZP insulin secretion iAUC: 14.86
Human islets [4]; donor R448, replicate 1
  TZP insulin secretion iAUC, Percent Control: 95.4 %Control
  TZP insulin secretion iAUC: 169.1
Human islets [4]; donor R448, replicate 2
  TZP insulin secretion iAUC, Percent Control: 86.1 %Control
  TZP insulin secretion iAUC: 152.5
Human islets [4]; donor R448, replicate 3
  TZP insulin secretion iAUC, Percent Control: 78.6 %Control
  TZP insulin secretion iAUC: 139.2
Human islets [4]; donor R449, replicate 1
  TZP insulin secretion iAUC, Percent Control: 10.8 %Control
  TZP insulin secretion iAUC: 14.8
Human islets [4]; donor R449, replicate 2
  TZP insulin secretion iAUC, Percent Control: 15.5 %Control
  TZP insulin secretion iAUC: 21.27
Human islets [4]; donor R449, replicate 3
  TZP insulin secretion iAUC, Percent Control: 25.1 %Control
  TZP insulin secretion iAUC: 34.32
Human islets [4]; donor R451, replicate 1
  TZP insulin secretion iAUC, Percent Control: 39.0 %Control
  TZP insulin secretion iAUC: 36.08
Human islets [4]; donor R451, replicate 2
  TZP insulin secretion iAUC, Percent Control: 22.6 %Control
  TZP insulin secretion iAUC: 20.91
Human islets [4]; donor R451, replicate 3
  TZP insulin secretion iAUC, Percent Control: 24.7 %Control
  TZP insulin secretion iAUC: 22.84
Human islets [4]; donor S1472, replicate 1
  TZP insulin secretion iAUC, Percent Control: 91.9 %Control
  TZP insulin secretion iAUC: 50.05
Human islets [4]; donor S1472, replicate 2
  TZP insulin secretion iAUC, Percent Control: 146.0 %Control
  TZP insulin secretion iAUC: 79.46
Human islets [4]; donor S1472, replicate 3
  TZP insulin secretion iAUC, Percent Control: 127.6 %Control
  TZP insulin secretion iAUC: 69.48
Human islets [4]; donor S2886, replicate 1
  TZP insulin secretion iAUC, Percent Control: 19.6 %Control
  TZP insulin secretion iAUC: 36.46
Human islets [4]; donor S2886, replicate 2
  TZP insulin secretion iAUC, Percent Control: 20.0 %Control
  TZP insulin secretion iAUC: 37.22
Human islets [4]; donor S2886, replicate 3
  TZP insulin secretion iAUC, Percent Control: 50.9 %Control
  TZP insulin secretion iAUC: 94.97

Source: PMC10290954 (Nature Metabolism, 2023)
